Results: ChEMBL document CHEMBL1144603, “Synthesis and biological evaluation of new taxoids derived from 2-deacetoxytaxinine J” (Bioorg Med Chem Lett, 2007)
Active and inactive are the calls of the source. The calls are words filed in the database; no cut-off is given here.

Tests used:
MCF7 [1] = experiment: MDR-reversal in paclitaxel-resistant […] cell growth assay as reduction of IC50 at 1uM; format: functional, cell-based, Homo sapiens
MCF7 [2] = experiment: MDR-reversal in paclitaxel-resistant […] cell growth assay as reduction of IC50 at 0.1uM; format: functional, cell-based, Homo sapiens
MCF7 [3] = experiment: MDR-reversal in paclitaxel-resistant […] cell growth assay; format: functional, cell-based; conditions: Homo sapiens

C=C1[C@H]2C[C@@H]3C[C@H](OC(=O)[C@H](O)[C@H](CC(C)C)NC(=O)OC(C)(C)C)C(C)=C([C@@H](OC(C)=O)[C@H](OC(C)=O)[C@]2(C)[C@@H](OC(C)=O)C[C@@H]1O)[C@@H]3C
percent reduction of paclitaxel IC50 (MCF7 [1]): 93%

C=C1[C@H]2C[C@@H]3C[C@H](OC(=O)[C@@H](O)Cc4ccccc4)C(C)=C([C@@H](OC(C)=O)[C@H](OC(C)=O)[C@]2(C)[C@@H](OC(C)=O)C[C@@H]1O)[C@@H]3C
percent reduction of paclitaxel IC50 (MCF7 [1]): 89% | IC50 reduction (MCF7 [2]): 24%

C=C1[C@H]2C[C@@H]3C[C@H](OC(=O)c4ccccc4)C(C)=C([C@@H](OC(C)=O)[C@H](OC(C)=O)[C@]2(C)[C@@H](OC(C)=O)C[C@@H]1O)[C@@H]3C
percent reduction of paclitaxel IC50 (MCF7 [1]): 95% | IC50 reduction (MCF7 [2]): 67%

C=C1[C@@H](OC(=O)/C=C/c2ccccc2)C[C@H](OC(C)=O)[C@]2(C)[C@@H]1C[C@@H]1C[C@H](OC(C)=O)[C@]3(C)O[C@@]3([C@@H]1C)[C@@H](OC(C)=O)[C@@H]2OC(C)=O
percent reduction of paclitaxel IC50 (MCF7 [1]): 92% | IC50 reduction (MCF7 [2]): 22%

C=C1[C@@H](OC(=O)/C=C/c2ccccc2)C[C@H](OC(C)=O)[C@]2(C)[C@@H]1C[C@@H]1C[C@H](OC(=O)/C=C/c3ccccc3)C(C)=C([C@@H](OC(C)=O)[C@@H]2OC(C)=O)[C@@H]1C
Activity (MCF7 [3]): inactive

C=C1[C@H]2C[C@@H]3C[C@H](O)C(C)=C([C@@H](OC(C)=O)[C@H](OC(C)=O)[C@]2(C)[C@@H](OC(C)=O)C[C@@H]1O)[C@@H]3C
percent reduction of paclitaxel IC50 (MCF7 [1]): 47%

C=C1[C@@H](OC(=O)[C@@H]2OC(c3ccc(OC)cc3OC)N(C(=O)OC(C)(C)C)[C@H]2CC(C)C)C[C@H](OC(C)=O)[C@]2(C)[C@@H]1C[C@@H]1C[C@H](OC(C)=O)C(C)=C([C@@H](OC(C)=O)[C@@H]2OC(C)=O)[C@@H]1C (some centres undefined)
Activity (MCF7 [3]): inactive

C=C1[C@@H](O[Si](CC)(CC)CC)C[C@H](OC(C)=O)[C@]2(C)[C@@H]1C[C@@H]1C[C@H](OC(C)=O)C(C)=C(C1C)[C@@H](OC(C)=O)[C@@H]2OC(C)=O (single isomer, unassigned)
percent reduction of paclitaxel IC50 (MCF7 [1]): 92%

CC(=O)O[C@H]1C[C@H](OC(=O)/C=C/c2ccccc2)[C@@]2(CO2)[C@H]2C[C@@H]3C[C@H](OC(C)=O)[C@]4(C)O[C@@]4([C@@H]3C)[C@@H](OC(C)=O)[C@H](OC(C)=O)[C@]12C
percent reduction of paclitaxel IC50 (MCF7 [1]): 70% | IC50 reduction (MCF7 [2]): 2%

C=C1[C@@H](OC(=O)c2ccccc2)C[C@H](OC(C)=O)[C@]2(C)[C@@H]1C[C@@H]1C[C@H](OC(C)=O)C(C)=C(C1C)[C@@H](OC(C)=O)[C@@H]2OC(C)=O (single isomer, unassigned)
Activity (MCF7 [3]): inactive

C=C1[C@H]2C[C@@H]3C[C@H](OC(=O)/C=C/c4ccccc4)C(C)=C([C@@H](OC(C)=O)[C@H](OC(C)=O)[C@]2(C)[C@@H](OC(C)=O)C[C@@H]1O)[C@@H]3C
percent reduction of paclitaxel IC50 (MCF7 [1]): 92% | IC50 reduction (MCF7 [2]): 35%

CC(=O)O[C@H]1C[C@H]2C[C@@H]3[C@]4(CO4)[C@@H](OC(=O)/C=C/c4ccccc4)C[C@H](OC(C)=O)[C@@]3(C)[C@@H](OC(C)=O)[C@H](OC(C)=O)C(=C1C)[C@@H]2C
percent reduction of paclitaxel IC50 (MCF7 [1]): 85%

C=C1[C@@H](OC(=O)/C=C/c2ccccc2)C[C@H](OC(C)=O)[C@]2(C)[C@@H]1C[C@@H]1C[C@H](OC(=O)C(O)[C@@H](CC(C)C)NC(=O)OC(C)(C)C)C(C)=C([C@@H](OC(C)=O)[C@@H]2OC(C)=O)[C@@H]1C (some centres undefined)
Activity (MCF7 [3]): inactive

C=C1[C@@H](OC(=O)/C=C/c2ccccc2)C[C@H](OC(C)=O)[C@]2(C)[C@@H]1C[C@@H]1C[C@H](OC(=O)[C@@H]3OC(c4ccc(OC)cc4OC)N(C(=O)OC(C)(C)C)[C@H]3CC(C)C)C(C)=C([C@@H](OC(C)=O)[C@@H]2OC(C)=O)[C@@H]1C (some centres undefined)
Activity (MCF7 [3]): inactive
